Reference: ChEMBL document CHEMBL1157539, “Thousands of chemical starting points for antimalarial lead identification” (Nature, 2010)

The compounds below were run on Plasmodium falciparum (assay: GSK_TCMDC: Inhibition of Plasmodium falciparum 3D7 in whole erythrocytes, using parasite LDH activity as an index of growth.). Settings: not given.
Format: functional, organism-based

SMILES | XC50 [nM]
O=C(/C=C/c1ccc(Cl)c(Cl)c1)NCCCCCN1C2CCC1CC(c1c[nH]c3ccc(O)cc13)C2 (stereo not given) | 879

Same assay, conditions: Plasmodium falciparum, 3D7

SMILES | XC50 [nM]
O=S(=O)(NCCN1CCCC1)c1ccc(-c2cccc(CNC3Cc4ccccc4C3)c2)cc1F | 1020
NS(=O)(=O)CCc1cccc(Nc2nccc(-c3c(-c4cccc(NC(=O)c5c(F)cccc5F)c4)nn4ccccc34)n2)c1 | 58.4
Nc1nccc2ccc(-c3ccc(NC(=O)Nc4cc(C(F)(F)F)ccc4F)cc3)cc12 | 86.3
O=C(Nc1cccc(CN2CCCN(Cc3ccc4c(c3)OCO4)CC2)c1)c1ccc(-c2ccccc2)cc1 | 652
CC(=O)c1c[nH]c(C(=O)Nc2ccc(-c3cn4ccccc4n3)cc2)c1 | 890
Cn1c(N)c(C(=O)CSc2nnc(-c3cccs3)n2Cc2ccccc2)c(=O)n(C)c1=O | 792
COc1cccc(CC(=O)N2CCC(n3c(C)nc4ccc(F)cc43)CC2)c1 | 906
O=C(/C=C/c1ccc(Cl)c(Cl)c1)NCCCCCN1C2CCC1CC(c1c[nH]c3ccc(O)cc13)C2 (stereo not given) | 998
CCC(CCON1C(N)=NC(N)=NC1(C)C)c1ccc(Cl)cc1 (stereo not given) | 3.2
CCCN1CCN(c2ccc(NS(=O)(=O)c3ccc(C(=O)Nc4ccc(Cl)cc4)cc3)cc2)CC1 | 1110
COCCCNC(=O)C1CCN(C(c2ccc(Cl)cc2)c2ccc(Cl)cc2)CC1 | 920
CCCNCc1ccc(-c2ccc(CN(CCOC)C(=O)c3cccc(C#N)c3)cc2)nc1 | 1230
Cc1cc(CN2C(=O)C(c3ccccc3)(c3ccccc3)N=C2N)c(C(F)(F)F)o1 | 956
CC[C@H]1CN2CC[C@H]1C[C@H]2[C@H](O)c1ccnc2ccc(OC)cc12 | 154
Cc1cccc2nc(-c3ccc(-c4cccc(NC(=O)C(C)CN(C)C)c4)s3)[nH]c12 (stereo not given) | 724
Cc1ccc(Nc2nc3cc(N(C)c4ccnc(Nc5cccc(CS(C)(=O)=O)c5)n4)ccc3o2)cc1 | 973
COc1ccc(NC(=O)CCNc2cc(C)nc(NCCOc3ccccc3)n2)cc1 | 746
CCCCn1c(Sc2ccc(C#N)c([N+](=O)[O-])c2)nnc1-c1cccc(Cl)c1 | 762
CCOc1ccc2nc(NC(=O)c3csnn3)sc2c1 | 476
O=C(Nc1ccc2c(c1)CCC2)c1cccc(CN2CCCN(Cc3cccc(O)c3)CC2)c1 | 1080
COc1cc(COc2c(C)nc(N)nc2N)cc(OC)c1OC | 332
Fc1cccc(Cn2ncc3cc(Nc4ncnc5sc(C#Cc6ncc[nH]6)cc45)ccc32)c1 | 1800
CCNc1cc(C(=O)N[C@@H](Cc2ccccc2)[C@H](O)CNC(C)(C)CC(C)(C)C)c(F)c(N2CCCCS2(=O)=O)c1 | 1010

SMILES | XC50 [nM]
C[C@H]1CN(Cc2cccc(-c3cc(CNC(=O)c4cccc(C(=O)c5ccc(Cl)c(Cl)c5)c4)ccc3F)c2)CCN1 | 1140
COc1ccc(C(=O)C2CC2CN2CC=C(c3c[nH]c4ccc(OC)nc34)CC2)cc1 (stereo not given) | 479
Cc1ccccc1C1CCN(c2ccc(NC(=O)c3ccc(Cl)nc3)cc2)CC1 | 1030
C=C[C@H]1CN(CCCCCCC)CC[C@H]1CC(O)Cc1ccnc2cc(O)c(OC)cc12 (stereo not given in full) | 818
c1ccc(C(c2ccccc2)N2CCC(NCc3ccc(OCCCN4CCCCC4)cc3)CC2)cc1 | 557
COc1cc2c(C3CCN(CC4CCC(NC(=O)/C=C/c5ccc(Cl)c(Cl)c5)CC4)CC3)c[nH]c2cn1 (stereo not given) | 423
COc1ccc(NC(=O)N2CCCN(CCCCCNC(=O)/C=C/c3ccc(C(F)(F)F)cc3)CC2)cc1Cl | 980
O=C1NC(c2ccc(N3CCCCCC3)cc2)Nc2ccccc21 (stereo not given) | 566
Cc1cc(CNCCCCCCNCc2ccc(-c3ccccc3)cc2)ccc1O | 897
CC1CN(c2cnn(C/C=C/c3ccc(NC(=O)c4ccc(Cl)cc4)cc3)c(=O)c2Cl)CC(C)N1 (stereo not given) | 853
O=C(NCCc1ccc(Cl)c(Cl)c1)C1CCCN(C(=O)c2ccc(O)c(-c3ccc(Cl)c(Cl)c3)c2)C1 (stereo not given) | 780
Cc1cc(N[C@@H](CC(C)C)C(=O)Nc2ccccc2)nc(NCc2ccccc2C)n1 | 777
COc1ccc(C(=O)C2CCN(CCCCNC(=O)c3ccc(NC(=O)c4cc(Cl)cc(Cl)c4)cc3)CC2)cc1 | 173
COc1ccc2c(c1)CC1CN(CCCCNC(=O)c3ccc(NC(=O)c4cc(Cl)cc(Cl)c4)cc3)CCN1C2 (stereo not given) | 767
COc1cc2nc(N(C)Cc3cc4c(Cl)cccc4s3)nc(N)c2cc1OC | 953
Cc1nc2ccc(Nc3nccc(-c4c(-c5cccc(NC(=O)c6c(F)cccc6F)c5)nn5ccccc45)n3)cc2nc1C | 1070
CC(=O)N(C)c1cccc(C(=O)Nc2cccc(-c3cccc(-c4nc5cccc(C)c5[nH]4)c3)c2)c1 | 617
O=C(NCCCCN1CCC(c2c[nH]c3ccccc23)CC1)c1sc(-c2ccc(C(F)(F)F)cc2)nc1CO | 1200
Cc1cc(N[C@@H](CC(C)C)C(=O)Nc2ccccc2)nc(NCCc2ccccc2)n1 | 888
CS(=O)(=O)NCCCNCc1cccc(-c2cccc(-c3nc4cc(F)ccc4[nH]3)c2)c1 | 938
COc1ccc(-c2csc(C(=O)NC3CCC(N4CCC(c5ccccc5C)CC4)CC3)c2)cc1 (stereo not given) | 378
Clc1ccccc1CN1CCC(NCc2cccc(-n3ccnc3)c2)CC1 | 786
CN(C)c1ccc(CN2CCC(CNC(=O)c3cc(-c4cccc(F)c4)cs3)C2)cc1 (stereo not given) | 1020

SMILES | XC50 [nM]
Cn1nc2ccc3ccccc3c2nc1=N | 773
O=C(NCc1ccc(C(=O)NC2CCCCC2)cc1)c1ccc(O)c(-c2ccc(Cl)c(Cl)c2)c1 | 875
COc1ccc2nccc(N3CCC(NCCNS(=O)(=O)c4ccc5c(c4)NC(=O)CS5)C3)c2n1 (stereo not given) | 901
CCCc1ccccc1OCC(O)CN(C1CCCC1)C1CCCC1 (stereo not given) | 470
N=C(N)NC(=O)Nc1ccc(Cl)c(C(F)(F)F)c1 | 594
CN1CCN(c2cc3c(cc2Br)CCN3C(=O)Nc2ccc(-c3cnc4ccccc4c3)cc2)CC1 | 576
COc1ccc(S(=O)(=O)Nc2cc(Br)cc3c2OCCC3)cc1N1CCN(C(=O)C(Cl)(Cl)Cl)CC1 | 871
O=C(Nc1cccc(C(F)(F)F)c1)Nc1ccc2nonc2c1 | 849
CCCNCc1ccc(-c2ccc(CN(CCOC)C(=O)CCc3ccc(OC)cc3)cc2)nc1 | 981
CC[C@H]1CN2CC[C@H]1C[C@@H]2[C@@H](O)c1cc(Cl)nc2ccc(OC)cc12 | 63.5
CO/C(=C\C=C\c1cc2cc(Cl)c(Cl)cc2[nH]1)C(=O)NC1CCN(CCOc2ccccc2)CC1 | 611
COc1ccc(N2C(N)=NC(N)=NC2(C)C)cc1 | 113
O=C(/C=C/c1ccc(Cl)c(Cl)c1)NCCCCCN1CCC(NC(=O)Nc2cccc(C(F)(F)F)c2)CC1 | 697
Cc1cccc(N2C(N)=NC(N)=NC2(C)C)c1C | 759
CC[C@H](C)CNC(=O)c1ccnc(-c2cccc(CN(C)C3CCN(C)CC3)c2)c1 | 898
Cc1ccc(C)c(Cn2ccc3nc(Cl)nc(Cl)c32)c1 | 911
COc1ccc(N2CCN(CCCCNCc3ccc(NC(=O)c4cc(Cl)cc(Cl)c4)cc3)CC2)c(OC)c1 | 253
COc1ccccc1CN1CCC(NC(=O)c2ccc(-c3cccc(C(F)(F)F)c3)s2)CC1 | 1310
Cc1ccc(O)c(C(=O)c2cc(C(=O)Nc3ccccc3C)c(=O)n(-c3ccccc3C)c2)c1 | 784
COc1cc(C2CCN(CCCCNC(=O)c3ccc(NC(=O)c4cc(C(F)(F)F)cc(C(F)(F)F)c4)cc3)CC2)ccc1OC(C)C | 154
Cc1cc(N/N=C/c2ccccc2[N+](=O)[O-])c2ccc(F)cc2n1 | 350
Cc1ccc(C2=NNC3(S2)C(=O)Nc2ccc(C)cc23)cc1 (stereo not given) | 1020
COc1ccc(CN2CCCN(Cc3cccc(C(=O)Nc4ccc(C)c(F)c4)c3)CC2)cc1 | 1310
